In the NIST ThermoML archive (doi:10.1016/j.jct.2019.06.005):

Test: xn = mol fraction of the nth substance listed
Conditions: for surface tension liquid-gas: Maximal bubble pressure; for mass density: 100 kPa, Liquid, Vibrating tube method

COCC[n+]1ccn(C)c1.O=S(=O)([N-]S(=O)(=O)C(F)(F)F)C(F)(F)F + CO
Conditions | mass density [kg/m3] | surface tension liquid-gas [mN/m]
288.15 K, x1 = 0.1004 | 1121.11 | 26.6
288.15 K, x1 = 0.2003 | 1263.18 | 28.5
288.15 K, x1 = 0.2814 | 1330.61 | 29.6
288.15 K, x1 = 0.4004 | 1394.19 | 31.5
288.15 K, x1 = 0.4987 | 1429.08 | 33.1
288.15 K, x1 = 0.5949 | 1454.46 | 34.8
288.15 K, x1 = 0.704 | 1476.43 | 36.9
288.15 K, x1 = 0.8042 | 1492.31 | 38.6
288.15 K, x1 = 0.9003 | 1504.71 | 40.1
288.15 K, x1 = 1 | 1515.3 | 41.4
293.15 K, x1 = 0.1004 | 1116 | 26.2
293.15 K, x1 = 0.2003 | 1257.97 | 28.1
293.15 K, x1 = 0.2814 | 1325.38 | 29.3
293.15 K, x1 = 0.4004 | 1388.96 | 31.1
293.15 K, x1 = 0.4987 | 1423.86 | 32.8
293.15 K, x1 = 0.5949 | 1449.25 | 34.5
293.15 K, x1 = 0.704 | 1471.24 | 36.6
293.15 K, x1 = 0.8042 | 1487.14 | 38.3
293.15 K, x1 = 0.9003 | 1499.56 | 39.8
293.15 K, x1 = 1 | 1510.15 | 41.2
298.15 K, x1 = 0.1004 | 1110.88 | 25.7
298.15 K, x1 = 0.2003 | 1252.76 | 27.7
298.15 K, x1 = 0.2814 | 1320.14 | 28.9
298.15 K, x1 = 0.4004 | 1383.74 | 30.8
298.15 K, x1 = 0.4987 | 1418.64 | 32.5
298.15 K, x1 = 0.5949 | 1444.06 | 34.2
298.15 K, x1 = 0.704 | 1466.08 | 36.4
298.15 K, x1 = 0.8042 | 1481.99 | 38.1
298.15 K, x1 = 0.9003 | 1494.42 | 39.6
298.15 K, x1 = 1 | 1505.03 | 41
303.15 K, x1 = 0.1004 | 1105.74 | 25.2
303.15 K, x1 = 0.2003 | 1247.54 | 27.3
303.15 K, x1 = 0.2814 | 1314.92 | 28.6
303.15 K, x1 = 0.4004 | 1378.52 | 30.5
303.15 K, x1 = 0.4987 | 1413.44 | 32.2
303.15 K, x1 = 0.5949 | 1438.88 | 34
303.15 K, x1 = 0.704 | 1460.92 | 36.1
303.15 K, x1 = 0.8042 | 1476.85 | 37.8
303.15 K, x1 = 0.9003 | 1489.3 | 39.4
303.15 K, x1 = 1 | 1499.92 | 40.7
308.15 K, x1 = 0.1004 | 1100.6 | 24.6
308.15 K, x1 = 0.2003 | 1242.33 | 26.9
308.15 K, x1 = 0.2814 | 1309.69 | 28.2
308.15 K, x1 = 0.4004 | 1373.31 | 30.1
308.15 K, x1 = 0.4987 | 1408.26 | 31.9
308.15 K, x1 = 0.5949 | 1433.72 | 33.7
308.15 K, x1 = 0.704 | 1455.77 | 35.8
308.15 K, x1 = 0.8042 | 1471.73 | 37.6
308.15 K, x1 = 0.9003 | 1484.2 | 39.1
308.15 K, x1 = 1 | 1494.83 | 40.5
313.15 K, x1 = 0.1004 | 1095.44 | 24.2
313.15 K, x1 = 0.2003 | 1237.11 | 26.5
313.15 K, x1 = 0.2814 | 1304.47 | 27.8
313.15 K, x1 = 0.4004 | 1368.12 | 29.9
313.15 K, x1 = 0.4987 | 1403.08 | 31.6
313.15 K, x1 = 0.5949 | 1428.57 | 33.4
313.15 K, x1 = 0.704 | 1450.64 | 35.6
313.15 K, x1 = 0.8042 | 1466.63 | 37.4
313.15 K, x1 = 0.9003 | 1479.12 | 38.9
313.15 K, x1 = 1 | 1489.77 | 40.3
318.15 K, x1 = 0.1004 | 1090.28 | 23.8
318.15 K, x1 = 0.2003 | 1231.89 | 26.1
318.15 K, x1 = 0.2814 | 1299.25 | 27.5
318.15 K, x1 = 0.4004 | 1362.93 | 29.6
318.15 K, x1 = 0.4987 | 1397.92 | 31.4
318.15 K, x1 = 0.5949 | 1423.44 | 33.2
318.15 K, x1 = 0.704 | 1445.47 | 35.4
318.15 K, x1 = 0.8042 | 1461.52 | 37.1
318.15 K, x1 = 0.9003 | 1474.06 | 38.7
318.15 K, x1 = 1 | 1484.72 | 40.1
